Measured values taken from ChEMBL document CHEMBL2010671, “Structure aided design of chimeric antibiotics” (Bioorg Med Chem Lett, 2012).
Values after ≈ are worked out from the molar mass of the structure shown.

How the values were obtained:
[1] = system: Staphylococcus epidermidis; assay: Antimicrobial activity against ciprofloxacin-sensitive, SXT-resistant Staphylococcus epidermidis NRS60; format: functional
[2] = system: Pseudomonas aeruginosa; assay: Antimicrobial activity against ciprofloxacin-sensitive, SXT-resistant Pseudomonas aeruginosa ATCC 10145; format: functional
[3] = system: Staphylococcus aureus; assay: Antimicrobial activity against ciprofloxacin-, SXT-sensitive Staphylococcus aureus ATCC 25923; format: functional
[4] = system: Klebsiella pneumoniae; assay: Antimicrobial activity against ciprofloxacin-sensitive, SXT-resistant Klebsiella pneumoniae ATCC 700603; format: functional
[5] = system: Escherichia coli; assay: Antimicrobial activity against ciprofloxacin-, SXT-sensitive Escherichia coli ATCC 25922; format: functional
[6] = Inhibition of DNA supercoiling activity of Escherichia coli DNA gyrase after 1 hr by agarose gel electrophoresis
[7] = system: Escherichia coli; assay: Antimicrobial activity against ciprofloxacin-, SXT-resistant Escherichia coli; format: functional
[8] = Inhibition of DNA decatenation activity of Escherichia coli DNA topoisomerase 4 after 1 hr by agarose gel electrophoresis
[9] = biological target: T1, Dihydrofolate reductase (Homo sapiens, UniProt P00374); assay: Inhibition of DHFR using dihydrofolate as substrate following 3 mins substrate preincubation measured after 3 mins by spectrophotometric analysis
T1 sequence (P00374 whole entry): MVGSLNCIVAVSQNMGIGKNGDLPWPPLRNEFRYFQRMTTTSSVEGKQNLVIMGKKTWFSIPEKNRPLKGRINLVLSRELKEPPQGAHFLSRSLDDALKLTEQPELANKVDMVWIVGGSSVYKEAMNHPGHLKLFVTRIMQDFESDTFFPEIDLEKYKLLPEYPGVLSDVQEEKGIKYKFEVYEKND

[10] = Cytotoxicity against human HEK293 cells after 48 hrs by MTT assay; format: cell-based
[11] = Cytotoxicity against human HepG2 cells after 48 hrs by MTT assay; format: cell-based
[12] = system: HEK293; assay: Cytotoxicity against human HEK293 cells at 100 uM after 48 hrs by MTT assay; format: cell-based; conditions: hek293, 48 h
[13] = system: HepG2; assay: Cytotoxicity against human HepG2 cells at 100 uM after 48 hrs by MTT assay; format: cell-based; conditions: hepg2, 48 h

Compound	MIC [1] [mg/L]	MIC [2] [mg/L]	MIC [3] [mg/L]	MIC [4] [mg/L]	MIC [5] [mg/L]	IC50 ([6]; read-out: IC50) [µM]	MIC [7] [mg/L]	IC50 ([8]; read-out: IC50) [µM]	IC50 [9] [µM]	CC50 at 48 h [10] [µM]	CC50 at 48 h [11] [µM]	Activity [12]	Activity [13]	IC50 [6]	IC50 [8]
C#CCNc1nc2c(cc1F)c(=O)c(C(=O)O)cn2C1CC1	16 (≈ 53.1 µM)	> 64	32 (≈ 106 µM)	> 64	16 (≈ 53.1 µM)	166	> 64	> 250							
Nc1ncc(COCc2cn(-c3nc4c(cc3F)c(=O)c(C(=O)O)cn4C3CC3)nn2)c(N)n1	4 (≈ 8.56 µM)	> 64	4 (≈ 8.56 µM)	16 (≈ 34.2 µM)	0.5 (≈ 1.07 µM)	48	> 64	4.5	> 250						
COc1cc(Cc2cnc(Nc3nc4c(cc3F)c(=O)c(C(=O)O)cn4C3CC3)nc2N)cc2c1OCCN2	> 64	> 64	> 64	> 64	> 64		> 64								
C#CCNc1nc2c(cc1F)c(=O)c(C(=O)OCC)cn2C1CC1										80	80	Toxic	Toxic		
COLISTIN	2	≤ 0.03	1	< 0.03	0.06		> 64								
Nc1ncc(CNc2nc3c(cc2F)c(=O)c(C(=O)O)cn3C2CC2)c(N)n1			> 64		> 64										
COc1cc(Cc2cnc(N)nc2N)cc(OC)c1OC [TRIMETHOPRIM]	> 64	> 64	1 (≈ 3.44 µM)	2 (≈ 6.89 µM)	0.125 (≈ 0.431 µM)		> 64								
Nc1ncc(Cn2cc(CN3CCN(c4nc5c(cc4F)c(=O)c(C(=O)O)cn5C4CC4)CC3)nn2)c(N)n1	8 (≈ 14.9 µM)	64 (≈ 120 µM)	64 (≈ 120 µM)	> 64	4 (≈ 7.47 µM)	160	> 64	10.7							
COc1cc(Cc2cnc(N)nc2Nc2nc3c(cc2F)c(=O)c(C(=O)O)cn3C2CC2)cc2c1OCCN2	> 64	> 64	> 64	> 64	> 64		> 64								
COc1cc(Cc2cnc(N)nc2N)cc2c1OCCN2	> 64	> 64	8 (≈ 27.8 µM)	32 (≈ 111 µM)	8 (≈ 27.8 µM)	> 250	> 64	> 250							
CCOC(=O)c1cn(C2CC2)c2nc(NCc3cn(Cc4cnc(N)nc4N)nn3)c(F)cc2c1=O	> 64	> 64	> 64	> 64	> 64		> 64							Not Active	Not Active
O=C(O)c1cn(C2CC2)c2cc(N3CCNCC3)c(F)cc2c1=O [CIPROFLOXACIN]	0.06 (≈ 0.181 µM)	≤ 0.03	0.5 (≈ 1.51 µM)	0.125 (≈ 0.377 µM)	≤ 0.03	0.97	> 64	0.392							
C#CCN1CCN(c2nc3c(cc2F)c(=O)c(C(=O)O)cn3C2CC2)CC1	0.5 (≈ 1.35 µM)	8 (≈ 21.6 µM)	0.25 (≈ 0.675 µM)	8 (≈ 21.6 µM)	0.25 (≈ 0.675 µM)	10	> 64	4.4							
[N-]=[N+]=Nc1nc2c(cc1F)c(=O)c(C(=O)O)cn2C1CC1	4 (≈ 13.8 µM)	> 64	16 (≈ 55.3 µM)	64 (≈ 221 µM)	2 (≈ 6.92 µM)	17	> 64	> 250							
